From patent publication US20210278408A1, “METHODS OF TREATMENT OF CANCER WITH SUBSTITUTED PYRROLE AND PYRAZOLE COMPOUNDS AND DIAGNOSIS OF CANCERS SUSCEPTIBLE TO TREATMENT WITH SUBSTITUTED PYRROLE AND PYRAZOLE COMPOUNDS” (Bantam Pharmaceutical, LLC, priority 2018, published 2021)
Read-outs that look alike come from different tables or passages of the source.

Tested on: 407 cancer cell lines
Assay: Cell viability of cancer cell lines (IC50), CellTiter-Glo Viability Assay, 96 h
Type: cell-based
Conditions: Homo sapiens, read-out: Absolute IC50
Description: Viability was determined by using the 50% inhibitory concentration (IC50) as determined with the CellTiter-Glo® Viability Assay (Promega).
Experiments were initiated by first thawing and equilibrating the CellTiter-Glo® Buffer to room temperature. The lyophilized CellTiter-Glo® Substrate was also equilibrated to room temperature. The lyophilized substrate was reconstituted with the CellTiter-Glo® buffer to form the CellTiter-Glo® Reagent.
Cells were harvested during the logarithmic growth period, counted, and the cell concentration adjusted to 4.44×10^4 cells/mL using culture medium.
Cells were allowed to grow overnight and the following day, the TO reading was obtained by adding 10 μL culture medium to each well of Plate A. The plate was allowed to equilibrate at room temperature for thirty minutes, after which 50 μL CellTiter-Glo® reagent was added to each well. The contents were mixed for 5 min on an orbital shaker to induce cell lysis. Plates were incubated for 20 minutes to stabilize the luminescent signal and the TO luminescence recorded.
Test plate B was incubated for 96 h in the humidified incubator at 37° C. with 5% CO2.
Following the incubation, the plate was equilibrated at room temperature for thirty minutes. CellTiter-Glo® (50 μL) was added to each well of the plate and contents mixed for five minutes on an orbital shaker to induce cell lysis. The luminescent signal was allowed to stabilize at room temperature for 20 minutes and the luminescence recorded.
IC50 (EC50) was calculated using a dose-response curve, fitted using a nonlinear regression model with a sigmoidal dose response. Survival rate was calculated using the formula:
The Surviving rate (%)=(LumTest article−LumMedium control)/(LumNon-treated−LumMedium control)×100%.
Absolute IC50 (EC50) was calculated according to the dose-response curve generated by the statistical software (GraphPad Prism 5.0).

Cc1nn(-c2nc(-c3ccc(C(F)(F)F)cc3)c(SC(C)C)s2)c(C(=O)O)c1-c1cccc(F)c1 [Compound A197, 4-(3-fluorophenyl)-1-(5-(isopropylthio)-4-(4-(trifluoromethyl)phenyl)thiazol-2-yl)-3-methyl-1H-pyrazole-5-carboxylic acid]
IC50 (DMS-79, DMS 79): > 30000 nM
IC50 (DMS-114, 96 h, DMS 114 cells, 96 h): > 30000 nM
IC50 (DOHH-2, 96 h, DOHH-2 cells, 96 h): 310 nM
IC50 (DU-145, 96 h, DU 145, 96 h): 850 nM
IC50 (DU-4475, DU4475): 320 nM
IC50 (DV-90, 96 h, DV-90 cells, 96 h): > 30000 nM
IC50 (Daoy, 96 h, Daoy cells, 96 h): > 30000 nM
IC50 (Daudi, 96 h, Daudi cells, 96 h): 810 nM
IC50 (Detroit 562, 96 h, Detroit 562 cells, 96 h): > 30000 nM
IC50 (DoTc2-4510, 96 h, DoTc2 4510 cells, 96 h): > 30000 nM
IC50 (EBC-1, 96 h): > 30000 nM
IC50 (EJM, 96 h, EJM cells, 96 h): 3000 nM
IC50 (EOL1, EOL-1): 740 nM
IC50 (ES-2, 96 h, ES-2 cells, 96 h): > 30000 nM
IC50 (FTC-133, FTC-133): 840 nM
IC50 (FaDu, 96 h, FaDu, 96 h): 380 nM
IC50 (G292, 96 h, G-292 clone A141B1 cells, 96 h): 1860 nM
IC50 (GTL 16, 96 h, GTL-16 cells, 96 h): > 30000 nM
IC50 (Granta-519, GRANTA-519): 1000 nM
IC50 (HCC38, HCC38): > 30000 nM
IC50 (HCC78, 96 h, HCC-78 cells, 96 h): 410 nM
IC50 (HCC827, 96 h, HCC827 cells, 96 h): > 30000 nM
IC50 (HCC1187, 96 h, HCC1187 cells, 96 h): > 30000 nM
IC50 (HCC1428, HCC1428): > 30000 nM
IC50 (HCC1569, HCC1569): > 30000 nM
IC50 (HCC1806, 96 h, HCC1806 cells, 96 h): > 30000 nM
IC50 (HCC1937, HCC1937): > 30000 nM
IC50 (HCC1954, HCC1954): > 30000 nM
IC50 (HCC2218, 96 h): > 30000 nM
IC50 (HCC2935, HCC2935): > 30000 nM
IC50 (HCC4006, 96 h): 460 nM
IC50 (HCCLM3, 96 h, HCCLM3 cells, 96 h): > 30000 nM
IC50 (HCT-8, HCT-8): 770 nM
IC50 (HCT-15, HCT-15): 300 nM
IC50 (HCT-116, HCT-116): 920 nM
IC50 (HEC-1-A, 96 h, HEC-1-A cells, 96 h): > 30000 nM
IC50 (HEC-1B, 96 h, HEC-1-B cells, 96 h): 550 nM
IC50 (HEL 92.1.7, HEL 92.1.7): 380 nM
IC50 (HGC-27, 96 h, HGC-27 cells, 96 h): 510 nM
IC50 (HL-60, HL-60): 990 nM
IC50 (HLE, 96 h, HLE cells, 96 h): > 30000 nM
IC50 (HOS, 96 h, HOS cells, 96 h): > 30000 nM
IC50 (HPAC): 460 nM
IC50 (HT55, HT-55): > 30000 nM
IC50 (HT-3, 96 h, HT-3 cells, 96 h): > 30000 nM
IC50 (HT-29, HT-29): 1270 nM
IC50 (HT-1080, 96 h): 1040 nM
IC50 (HT-1376, HT-1376): > 30000 nM
IC50 (HeLa 229, 96 h, HeLa 229 cells, 96 h): > 30000 nM
IC50 (HeLa, 96 h, HeLa cells, 96 h): 1740 nM
IC50 (Hep3B): > 30000 nM
IC50 (HepG2, Hep G2): > 30000 nM
IC50 (HuCCT-1, 96 h, HuCCT1, 96 h): > 30000 nM
IC50 (HuH-1, HUH-1): > 30000 nM
IC50 (HuT78, HuT 78): 630 nM
IC50 (HuTu80, Hutu 80): 860 nM
IC50 (Huh-7, 96 h, HUH-7 cells, 96 h): 1050 nM
IC50 (IMR-32, 96 h, IMR-32 cells, 96 h): 800 nM
IC50 (Ishikawa, 96 h, Ishikawa, 96 h): 290 nM
IC50 (J82, 96 h, J82 cells, 96 h): 1110 nM
IC50 (JEG-3, 96 h, JEG-3 cells, 96 h): 1080 nM
IC50 (JIMT-1, 96 h, JIMT-1 cells, 96 h): > 30000 nM
IC50 (JJN-3, 96 h, JJN-3 cells, 96 h): 1340 nM
IC50 (JVM-2, JVM-2): 730 nM
IC50 (JVM-3, JVM-3): 270 nM
IC50 (JeKo-1, 96 h, JeKo-1 cells, 96 h): 790 nM
IC50 (Jurkat, Jurkat clone E6-1): 640 nM
IC50 (K562, K-562): 570 nM
IC50 (KARPAS-299, 96 h, KARPAS-299 cells, 96 h): > 30000 nM
IC50 (KARPAS-422, KARPAS-422): 780 nM
IC50 (KATO III, 96 h, KATO III, 96 h): > 30000 nM
IC50 (KG-1, KG-1): 1050 nM
IC50 (KHOS/NP, 96 h, KHOS/NP cells, 96 h): > 30000 nM
IC50 (KM-H2, 96 h, KMH-2 cells, 96 h): 1440 nM
IC50 (KMS-11, KMS-11): 630 nM
IC50 (KP-4, 96 h, KP4 cells, 96 h): 530 nM
IC50 (KYSE-70, KYSE-70): 460 nM
IC50 (KYSE-150, KYSE-150): 750 nM
IC50 (KYSE-270, KYSE-270): 4780 nM
IC50 (KYSE-410, 96 h, KYSE-410 cells, 96 h): > 301000 nM
IC50 (Kasumi 1, Kasumi-1): 1090 nM
IC50 (L-363, L-363): 880 nM
IC50 (LN-18, 96 h, LN-18 cells, 96 h): 520 nM
IC50 (LN-229, 96 h, LN-229 cells, 96 h): > 30000 nM
IC50 (LNCaP-Clone-FGC, 96 h, LNCaP clone FGC, 96 h): 180 nM
IC50 (LP-1, LP-1): 490 nM
IC50 (LS180, LS 180): > 30000 nM
IC50 (LS-123, 96 h, LS123 cells, 96 h): > 30000 nM
IC50 (LS-411N, LS411N): 700 nM
IC50 (LS-513, 96 h, LS513 cells, 96 h): 700 nM
IC50 (LS-1034, 96 h, LS1034 cells, 96 h): > 30000 nM
IC50 (LoVo): > 30000 nM
IC50 (MCF7, MCF7): > 30000 nM
IC50 (MDA-MB-231, MDA-MB-231): > 30000 nM
IC50 (MDA-MB-415, MDA-MB-415): > 30000 nM
IC50 (MDA-MB-436, 96 h): > 30000 nM
IC50 (MDA-MB-453, MDA-MB-453): > 30000 nM
IC50 (MDA-MB-468, 96 h, MDA-MB-468 cells, 96 h): 520 nM
IC50 (ME-180, 96 h, ME-180 cells, 96 h): 550 nM
IC50 (MEG-01, MEG-01): 1560 nM
IC50 (MES-SA, 96 h, MES-SA cells, 96 h): 490 nM
IC50 (MES-SA/Dx5, 96 h, MES-SA/DX5 cells, 96 h): 340 nM
IC50 (MFE-296, 96 h, MFE-296 cells, 96 h): > 30000 nM
IC50 (MHCC97H, MHCC97-H): 3250 nM
IC50 (MIA PaCa-2, MIA PaCa-2): 2890 nM
IC50 (MKN-1, 96 h, MKN1 cells, 96 h): 2930 nM
IC50 (MKN-45, 96 h, MKN45, 96 h): > 30000 nM
IC50 (MKN-74, 96 h, MKN74 cells, 96 h): > 30000 nM
IC50 (ML-2, ML-2): 460 nM
IC50 (MM1.S, MM.1S): > 30000 nM
IC50 (MOLM-13, 96 h, MOLM-13 cells, 96 h): 870 nM
IC50 (MOLP-8, 96 h, MOLP8 cells, 96 h): 990 nM
IC50 (MOLT-4, Molt-4): 620 nM
IC50 (MSTO-211H, 211 h, MsTo 211H): 550 nM
IC50 (MV4-11, 96 h, MV-4-11 cells, 96 h): 320 nM
IC50 (MX1, MX-1): > 30000 nM
IC50 (NALM-6, NALM-6): 700 nM
IC50 (NB-4, 96 h, NB4 cells, 96 h): 110 nM
IC50 (NCI-H23, 96 h, NCI-H23 cells, 96 h): 760 nM
IC50 (NCI-H69, 96 h, NCI-H69 cells, 96 h): > 30000 nM
IC50 (NCI-H82, 96 h): 760 nM
IC50 (NCI-H146, 96 h, NCI-H146 cells, 96 h): > 30000 nM
IC50 (NCI-H187, NCI-H187): 330 nM
IC50 (NCI-H209, 96 h, NCI-H209 cells, 96 h): > 30000 nM
IC50 (NCI-H226, NCI-H226): 2080 nM
